In US7759349B2, “Control of parasites in animals by the use of imidazo[1,2-b]pyridazine derivatives” (Schering-Plough Animal Health Corporation, priority 2003, dated 2010):

These compounds were tested on Haemonchus contortus (assay: Haemonchus contortus larvacidal assay: NemaTOX H. contortus dose response (larval development, eggs to L3)). Conditions: Haemonchus contortus, 144 h; Table 3; concentration required to inhibit development in 99% of the nematode larvae; eggs on agar to L3 stage (6 days); two-fold dilutions, 0.024 to 50 μg/ml; read-out: LD99.
Assay type: cell-based
Procedure: Haemonchus Contortus Larvacidal Assay: NemaTOX H.contortus Dose Response (00/0510)
Effect on larval development is determined in the assay described by Gill et al. (International Journal of Parasitology, 1995, 25, 463-470). Briefly, in this assay nematode eggs were applied to the surface of an agar matrix containing the test compound and then allowed to develop through to the L3, infective stage (6 days)
The wells for each dilution of every compound (from highest to lowest concentration) were inspected to determine the well number corresponding to the lowest concentration at which development was inhibited in 99% of the nematode larvae present. As the well numbers correspond to a two-fold serial dilution of each compound, a titre (dilution factor) is generated as 2^n-1, where n is the well number. By dividing the highest concentration tested by the titre an LD99 value can be obtained, representing the concentration required to inhibit development in 99% of the nematode larvae present.
The compounds supplied as solid and viscous liquids were dissolved in DMSO. Twelve serial 1/2 dilutions in DMSO solution were prepared from the stock solution, each of which was then diluted 1/5 with water. Aliquots (10 μl) of each dilution were transferred to the bioassay plates to give a final concentration range of 0.024 to 50 μg/ml.
In Tables 1, 2 and 3 the Haemonchus contortus LD99 values for compounds in accordance with the present invention are listed, measured in micrograms/mL.
CCCOc1ccc2nc3c(n2n1)CCc1cc(OC)ccc1-3 [Compound 121, 3-Methoxy-8-propoxy-5,6-dihydro-6b,7,11-triaza-benzo[a]fluorene] showed an IC99 of 0.203 µg/mL.
For CCCOc1ccc2nc3c(n2n1)Cc1ccccc1-3 [Compound 123, 3-Propoxy-5H-4,4a, 10-triaza-indeno[2,1-a]indene], the IC99 was 0.469 µg/mL.

Same assay, conditions: Table 1; concentration required to inhibit development in 99% of the nematode larvae; eggs on agar to L3 stage (6 days); two-fold dilutions, 0.024 to 50 μg/ml
COc1ccc(-c2cn3nc(SC(C)C)ccc3n2)cc1 [Compound 52] was tested, and the LD99 was 0.938 micrograms/mL.
For COc1c(-c2ccccc2)nc2ccc(SC)nn12 [Compound 3], the LD99 was 3 micrograms/mL.
CCCOc1ccc2nc(-c3ccc(OC)c(OC)c3)cn2n1 [Compound 26] was tested, and the LD99 was 1.3 micrograms/mL.
In the case of CCOc1ccc(-c2nc3ccc(OCC4CC4)nn3c2Br)cc1 [Compound 39], the LD99 is reported as 2.75 micrograms/mL.
Compound c1ccc(COc2ccc3nc(-c4ccccc4)cn3n2)cc1 [Compound 10] has an LD99 of 5.5 micrograms/mL.
With COc1ccc(-c2nc3ccc(-c4ccccc4)nn3c2C)cc1 [Compound 36] the LD99 was 0.8123 micrograms/mL.
With COc1ccc2nc(-c3ccc(C)cc3)cn2n1 [Compound 1] the LD99 was 3.75 micrograms/mL.
In the case of CCCSc1ccc2nc(-c3ccc4c(c3)OCO4)cn2n1 [Compound 8], the LD99 is reported as 0.813 micrograms/mL.
Compound CCCSc1ccc2nc(-c3ccc(OCC)cc3)c(Cl)n2n1 [Compound 48] has an LD99 of 6 micrograms/mL.
CCCSc1ccc2nc(-c3ccccc3)c(OC)n2n1 [Compound 22] showed an LD99 greater than 15.0 micrograms/mL.
CCCSc1ccc2nc(-c3ccc(OC)c(OC)c3)cn2n1 [Compound 29] was tested, and the LD99 was 1.9 micrograms/mL.
Work on CCCSc1ccc2nc(-c3cccc(OC)c3)cn2n1 [Compound 13] yielded an LD99 of 0.63 micrograms/mL.
Work on CCCOc1ccc2nc(-c3ccc4c(c3)OCO4)cn2n1 [Compound 16] yielded an LD99 of 0.23 micrograms/mL.
CCCSc1ccc2nc(-c3ccc(OCC)cc3)cn2n1 [Compound 30] gave an LD99 of 0.38 micrograms/mL.
In the case of CSCc1c(-c2ccc(Cl)cc2)nc2ccc(SC)nn12 [Compound 20], the LD99 is reported as greater than 15.0 micrograms/mL.
COc1ccc(-c2nc3ccc(OCc4ccccc4)nn3c2OC)cc1 [Compound 17] showed an LD99 greater than 15.0 micrograms/mL.
CCCOc1ccc2nc(-c3ccc4c(c3)OCCO4)cn2n1 [Compound 61] was tested, and the LD99 was 0.813 micrograms/mL.
With CCCCOc1ccc2nc(-c3ccc(OCCC)cc3)cn2n1 [Compound 53] the LD99 was 0.344 micrograms/mL.
Compound COc1ccc(CSc2ccc3nc(-c4cccs4)c(C)n3n2)cc1 [Compound 47] has an LD99 of 7.5 micrograms/mL.
CCOc1ccc(-c2cn3nc(-c4ccccc4)ccc3n2)cc1 [Compound 35] was tested, and the LD99 was 10 micrograms/mL.
CCCCCCSc1ccc2nc(-c3cccs3)c(C)n2n1 [Compound 46] gave an LD99 of 6.5 micrograms/mL.
In the case of CCCCOc1ccc2nc(-c3ccc(OCCC)cc3)c(CN(C)C)n2n1 [Compound 59], the LD99 is reported as 14 micrograms/mL.
CCCOc1ccc2nc(-c3ccc(OC)c(Br)c3)c(C)n2n1 [Compound 38] showed an LD99 of 3.75 micrograms/mL.
With CCCOc1nn2cc(-c3ccc(OCC)cc3)nc2cc1C [Compound 32] the LD99 was 0.188 micrograms/mL.
For CCSc1ccc2nc(-c3ccc(C)cc3)cn2n1 [Compound 12], the LD99 was 1.25 micrograms/mL.
Work on COc1c(-c2ccc3cc(C)ccc3c2)nc2ccc(SC)nn12 [Compound 9] yielded an LD99 greater than 15.0 micrograms/mL.
Cc1c(-c2cccs2)nc2ccc(Br)nn12 [Compound 45] showed an LD99 of 6 micrograms/mL.
With CCCOc1ccc2nc(-c3ccc(F)cc3)cn2n1 [Compound 55] the LD99 was 0.813 micrograms/mL.
With CCCOc1ccc2nc(-c3cccc(OC)c3)cn2n1 [Compound 28] the LD99 was 0.23 micrograms/mL.
In the case of CCOc1ccc2nc(-c3ccc(C)cc3)cn2n1 [Compound 2], the LD99 is reported as 0.875 micrograms/mL.
Work on COc1cccc(Sc2ccc3nc(-c4ccc5c(c4)OCO5)cn3n2)c1 [Compound 19] yielded an LD99 greater than 15.0 micrograms/mL.
Compound COc1cccc(-c2nc3ccc(SC)nn3c2OC)c1 [Compound 15] has an LD99 of 2.75 micrograms/mL.
CCOc1ccc(-c2cn3nc(OC4CCCC4)ccc3n2)cc1 [Compound 31] showed an LD99 of 0.875 micrograms/mL.
CSc1ccc2nc(-c3ccccc3)cn2n1 [Compound 4] gave an LD99 of 2.75 micrograms/mL.
CCOc1ccc(-c2cn3nc(SCC(C)C)ccc3n2)cc1 [Compound 49] showed an LD99 of 1.75 micrograms/mL.
Compound CCc1ccc(-c2cn3nc(OCC4CC4)ccc3n2)cc1 [Compound 56] has an LD99 of 0.0781 micrograms/mL.
For CCCOc1ccc2nc(-c3ccc(F)cc3F)cn2n1 [Compound 54], the LD99 was 0.219 micrograms/mL.
For COc1ccc(-c2cn3nc(OC(C)C)ccc3n2)cc1OC [Compound 58], the LD99 was 15 micrograms/mL.
COCCOc1ccc2nc(-c3ccc4c(c3)OCO4)cn2n1 [Compound 25] was tested, and the LD99 was 1.25 micrograms/mL.

Same assay, conditions: Table 2; concentration required to inhibit development in 99% of the nematode larvae; eggs on agar to L3 stage (6 days); two-fold dilutions, 0.024 to 50 μg/ml
CCCCSc1ccc2nc(-c3ccc(OCCOCC)cc3)cn2n1 [Compound 115] was tested, and the LD99 was 0.219 micrograms/mL.
CCCOc1ccc2nc(-c3ccc(OCCOC)c(OC)c3)cn2n1 [Compound 66] was tested, and the LD99 was 0.81 micrograms/mL.
With COCCOc1ccc(-c2nc3ccc(-c4ccccc4)nn3c2C)cc1 [Compound 85] the LD99 was 1.88 micrograms/mL.
CCCOc1nn2cc(-c3ccc(OCCO)cc3)nc2c2ccccc12 [Compound 120] gave an LD99 of 1.38 micrograms/mL.
COCCOc1cccc(-c2nc3ccc(SC(C)C)nn3c2C)c1 [Compound 103] gave an LD99 of 7 micrograms/mL.
Work on OCCOc1ccc(-c2cn3nc(OC4CCCC4)ccc3n2)cc1 [Compound 74] yielded an LD99 of 7 micrograms/mL.
Compound CCCCSc1ccc2nc(-c3ccc(OCCOC)cc3)cn2n1 [Compound 99] has an LD99 of 0.0938 micrograms/mL.
With CCCOc1nn2cc(-c3ccc(OCCOC)cc3)nc2c2ccccc12 [Compound 119] the LD99 was 0.344 micrograms/mL.
In the case of COCCOc1cccc(-c2nc3ccc(OC(C)C)nn3c2C)c1 [Compound 104], the LD99 is reported as 5 micrograms/mL.
With CCCSc1ccc2nc(-c3ccc(OCCOC)c(OC)c3)c(Br)n2n1 [Compound 89] the LD99 was 0.75 micrograms/mL.
Compound CCCCOc1ccc2nc(-c3ccc(OCCOC)cc3)cn2n1 [Compound 111] has an LD99 of 0.219 micrograms/mL.
CCCOc1ccc2nc(-c3ccc(OCCOC)cc3)c(Br)n2n1 [Compound 81] showed an LD99 of 0.0137 micrograms/mL.
COCCOc1cccc(-c2nc3ccc(Br)nn3c2C)c1 [Compound 93] gave an LD99 of 11 micrograms/mL.
COCCOc1ccc(-c2cn3nc(Br)ccc3n2)cc1 [Compound 90] gave an LD99 of 3 micrograms/mL.
For COCCOc1ccc(-c2cn3nc(OCc4ccccc4)ccc3n2)cc1 [Compound 92], the LD99 was 0.438 micrograms/mL.
COCCOc1ccc(-c2cn3nc(OC(C)C)ccc3n2)cc1OC [Compound 107] gave an LD99 of 7 micrograms/mL.
COCCOc1ccc(-c2cn3nc(SC(C)C)ccc3n2)cc1 [Compound 109] was tested, and the LD99 was 0.203 micrograms/mL.
Compound COCCOc1ccc(-c2nc3ccc(Cl)nn3c2C)cc1Br [Compound 86] has an LD99 of 3 micrograms/mL.
Work on COCCOc1ccc(-c2nc3ccc(Cl)nn3c2C)cc1 [Compound 87] yielded an LD99 of 0.156 micrograms/mL.
In the case of CCOc1ccc2nc(-c3ccc(OCCOC)cc3)cn2n1 [Compound 100], the LD99 is reported as 0.406 micrograms/mL.
COCCOc1ccc(-c2cn3nc(OCCOC)ccc3n2)cc1 [Compound 64] was tested, and the LD99 was 6 micrograms/mL.
For CCCOc1ccc2nc(-c3ccc(OCCOCC)cc3)cn2n1 [Compound 116], the LD99 was 0.109 micrograms/mL.
Compound CCOc1ccc2nc(-c3ccc(OCCOC)c(OC)c3)cn2n1 [Compound 118] has an LD99 of 1.25 micrograms/mL.
For COCCOc1ccc(-c2cn3nc(N4CCCC4)ccc3n2)cc1 [Compound 70], the LD99 was 3.25 micrograms/mL.
CCCNc1ccc2nc(-c3ccc(OCCOC)cc3)cn2n1 [Compound 71] was tested, and the LD99 was 0.688 micrograms/mL.
Compound CCOCCOc1ccc(-c2cn3nc(OCC4CC4)ccc3n2)cc1 [Compound 117] has an LD99 of 0.0391 micrograms/mL.
CCCSc1ccc2nc(-c3ccc(OCCOC)c(OC)c3)cn2n1 [Compound 68] gave an LD99 of 0.44 micrograms/mL.
COCCOc1ccc(-c2cn3nc(SCC(C)C)ccc3n2)cc1OC [Compound 105] showed an LD99 of 0.406 micrograms/mL.
For CCCOc1ccc2nc(-c3ccc(OCCOC)c(Br)c3)c(C)n2n1 [Compound 83], the LD99 was 0.375 micrograms/mL.
